Data as given in PMC10823475, “Design, Synthesis, and Evaluation of Inhibitors of Hedgehog Acyltransferase” (Journal of Medicinal Chemistry, 2024).
Values joined by “and” are separate entries in the source; they are usually repeats but may differ in a detail not shown here. Identical values can stand only once. Like-named read-outs stand apart in the source and are kept apart here.

Assays:
HEK293a SHH+ cells = assay: MTS assay, cytotoxicity (72 h); format: cell-based; conditions: for decrease in cell viability / cell survival: 12.5 μM
Outline: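 Cells plated at 5000/well, cultured 24 h, then exposed to analogues (0.14–100 μM final) in DMEM/10% FBS for 72 h. MTS/PMS added for 3 h at 37 °C and absorbance read at 490 nm; data normalised to DMSO vehicle and puromycin (2 μg/mL) wells, curves fitted with a variable-slope sigmoidal model.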

[1] = Microsomal incubations, mouse liver microsomes; format: in vitro ADME; conditions: 1 μM
Method: (§1) Metabolic stability assays were performed using a Microlab Star liquid handling workstation (Hamilton Robotics, Bonaduz, Switzerland). Test compounds (1 μM, 1% DMSO) were preincubated at 37 °C for 10 min in 0.5 mg/mL female CD1 mouse and mixed gender human liver microsomes in 10 mM phosphate buffered saline (PBS; Sigma-Aldrich Company Ltd. (Dorset, UK)). Microsomes were purchased either from Sekisui XenoTech, LLC (Kansas City, USA) or BioreclamationIVT (Frankfurt Am Main, Germany). Reactions were initiated by the addition of NADPH (final concentration 1 mM). At 0, 15, and 30 min, aliquots were removed from each incubation and quenched in 3 volumes of ice-cold methanol containing olomoucine (Sigma-Aldrich, Dorset, UK) as an internal standard. […] The percentage metabolized was calculated by comparing peak area ratio (peak area test compound/peak area of internal standard) at t = 15 and 30 min versus t = 0 min.

[2] = Microsomal incubations, human liver microsomes; format: in vitro ADME; conditions: 1 μM
Method: as §1

[3] = Caco-2 permeability assay; format: in vitro ADME, human; conditions: human; for Papp A→B at 2 h, 10 μM / Papp B→A at 2 h, 10 μM / recovery at 2 h, 10 µM: Caco-2, pH 7.4, 10 µM; for efflux ratio at 2 h, 10 µM: Caco-2, pH 7.4, read-out: Caco-2 Eflux Ratio (B>A/A>B)
Method: (§2) Apparent permeability (Papp) was determined in the Caco-2 human colon carcinoma cell line. Cells were maintained in DMEM containing 10% fetal bovine serum, penicillin and streptomycin in a humidified atmosphere with 5% CO2 for 10 days. Cells were plated onto a cell culture assembly plate (Millipore, UK) and monolayer confluency was checked using a TEER electrode prior to the assay. Medium was washed off and replaced in the appropriate apical and basal wells with HBSS buffer (pH 7.4) containing compounds (10 μM, 1% DMSO). The Caco-2 plate was incubated for 2 h at 37 °C, and Lucifer yellow was used to confirm membrane integrity postassay. […] Papp was determined as follows: [drawing 1] where Vr = volume of receptical; A = surface area of monolayer; C0 = Initial compound concentration in donor.

[4] = test system: Caco-2 human colon carcinoma cell line; assay: Caco-2 permeability assay; format: in vitro ADME
Method: as §2

HHAT = target: HHAT; design: method as in PMID 34890564, PMID 33768725; conditions: read-out: Ki, competitive inhibitor of Pal-CoA; cited from earlier work
[5] = + Verapamil (P-glycoprotein inhibitor)
[6] = + Verapamil (P-glycoprotein inhibitor), read-out: Caco-2 A>B Recovery
[7] = + Verapamil (P-glycoprotein inhibitor), read-out: Caco-2 B>A Recovery
[8] = without Verapamil, read-out: Caco-2 A>B Recovery
[9] = without Verapamil, read-out: Caco-2 B>A Recovery

| SMILES | decrease in cell viability / cell survival (HEK293a SHH+ cells) | MLM % metabolized after 15 min [1] | MLM % metabolized after 30 min [1] | HLM % metabolized after 15 min [2] | HLM % metabolized after 30 min [2] | Papp A→B at 2 h, 10 μM [3, 5] | Papp B→A at 2 h, 10 μM [3, 5] | recovery at 2 h, 10 µM [3, 6] | recovery at 2 h, 10 µM [3, 7] | Papp A→B at 2 h, 10 μM ([3]; without Verapamil) | Papp B→A at 2 h, 10 μM ([3]; without Verapamil) | recovery at 2 h, 10 µM [3, 8] | recovery at 2 h, 10 µM [3, 9] | efflux ratio at 2 h, 10 µM [3] | Caco-2 efflux [4] | Caco-2 permeability [4] | toxicity to HEK293a SHH+ cells (HEK293a SHH+ cells) | CC50 (HEK293a SHH+ cells; 72 h, read-out: MTS Assay (HEK293a SHH+) CC50 (CI95)) | Ki (HHAT) |
| --- | --- | --- | --- | --- | --- | --- | --- | --- | --- | --- | --- | --- | --- | --- | --- | --- | --- | --- | --- |
| C=CCNCC(=O)N1CCc2sccc2C1COc1ccc(Cl)cc1 (stereo not drawn) [Compound 2] | 44% | 90.8% and > 90% | 98.4% | 43.0% | 69.5% | 8.3 ± 0.9 ×10⁻⁶ cm/s | 12.5 ± 1.9 ×10⁻⁶ cm/s | 41.1 ± 1% | 51.6 ± 1% | 14.5 ± 0.4 ×10⁻⁶ cm/s | 12.4 ± 2.1 ×10⁻⁶ cm/s | 56.7 ± 1.9% | 87.8 ± 1.2% | 0.86 | no detectable efflux | moderate-high permeability | – | – | – |
| CC(=O)N1CCc2sccc2C1c1ccccc1 (stereo not drawn) [Compound 5] | < 30% | 99.5% and > 90% | 99.4% | 52.5% | 64.3% | – | – | – | – | – | – | – | – | – | – | – | – | – | – |
| CCC(C)CNCC(=O)N1CCc2sccc2C1c1cccc(C)c1 (stereo not drawn) [Compound 17] | – | 99.5% and > 90% | 100.0% | 44.4% | 66.7% | 14.2 ± 0.8 ×10⁻⁶ cm/s | 19.8 ± 2 ×10⁻⁶ cm/s | 58.6 ± 0.9% | 66.6 ± 1.9% | 17 ± 2.5 ×10⁻⁶ cm/s | 17.4 ± 4.1 ×10⁻⁶ cm/s | 60.5 ± 2.4% | 80.4 ± 2.2% | 1.02 | – | – | toxic | – | – |
| CCC(C)CNCC(=O)N1CCc2sccc2C1c1cccc(C)n1 (stereo not drawn) [Compound 22] | – | 98.1% and > 90% | 99.7% | 36.9% | 56.2% | 35.5 ± 2 ×10⁻⁶ cm/s | 22.7 ± 3.3 ×10⁻⁶ cm/s | 70 ± 2.5% | 75.7 ± 2% | 39.2 ± 0.7 ×10⁻⁶ cm/s | 29.7 ± 0.2 ×10⁻⁶ cm/s | 88.7 ± 0.1% | 108 ± 3.1% | 0.76 | no detectable efflux | moderate-high permeability | – | – | – |
| Cc1cccc([C@H]2c3ccsc3CCN2C(=O)CNCC(C)C)n1 [Compound 30] | < 30% | > 90% and 95.5% | 99.7% | 28.8% | 36.9% | – | – | – | – | – | – | – | – | – | – | – | – | > 100 µM | 0.038 µM |
